{"source": "ChEMBL document CHEMBL1158065", "about": "“Prenylated phenolics from Ganoderma fornicatum” (J Nat Prod, 2006)", "system": "HEp-2", "assay": "Cytotoxicity against human Hep2 cells by MTT method", "assay_type": "functional, cell-based"}
{"molecule": "COC1(c2cc(O)ccc2O)C=C(CC/C=C(\\C)CCC=C(C)C)C(=O)O1", "note": "(configuration not stated) [FORNICIN B]", "values": [{"measurement": "IC50", "result": 15, "unit": "µg/mL"}]}
{"molecule": "CC(C)=CCC/C(C)=C/CCC(CC(=O)c1cc(O)ccc1O)C(=O)O", "note": "(configuration not stated) [FORNICIN C]", "values": [{"measurement": "IC50", "result": 23, "unit": "µg/mL"}]}
